Experiments:
CB1 receptor = CB1 receptor (Homo sapiens, UniProt P21554); assay: biochemical; format: binding; conditions: displaces 50% of a radiolabeled agonist
[1] = tested on: isolated detrusor from rats with partial urethral obstruction; assay: Carbachol-induced contractions in bladder strips from PUO rats; format: ex vivo, rat; conditions: strips from PUO rats treated for 2 weeks
Description: (§1) The effect of chronic treatment with the compound of Formula I was studied in contractility studies with isolated bladder strips from rats with PUO after 2 weeks of treatment with the compound of Formula I.
(§2) Bladder strips (2×2×6 mm) were dissected from PUO rat bladders. Silk ligatures were applied at both ends of the preparations which then were mounted on metal prongs in 5 ml aerated (95% O2 and 5% CO2) tissue baths (37° C.) containing Krebs solution. Mechanical activity was registered with Grass FT 03C force transducers connected to a Grass Polygraph model 7E. The preparations were stretched to a tension of approximately 10 mN and left to equilibrate for 45 minutes to attain a stable resting tonus. To establish the viability of the preparations and to determine a standard contractile level, preparations were exposed to a 60 mM K^+ Krebs solution. The effects of cumulative addition of carbachol, a non-selective muscarininc agonist (1 nM-0.1 mM), were studied in strip preparations from vehicle-treated and compound of Formula I-treated rats with PUO.
Transmural activation of nerves was performed with two platinum electrodes, placed in parallel to the sides of the strips in the organ baths. […] All contractile responses were expressed as a percentage of the contraction elicited by 60 mM K^+ Krebs solution. […]

[2] = tested on: conscious rats with partial urethral obstruction; assay: Cystometry in conscious rats with partial urethral obstruction (PUO); format: in vivo, rat; conditions: 3 mg/kg IP daily for 2 weeks
Excerpt: The effect of chronic treatment with the compound of Formula I on bladder function was studied by cystometry in conscious rats with partial urethral obstruction (“PUO”) after 2 weeks of treatment with the compound of Formula I. Protocols for animals and bladder catheter implantation were as in Example 4 above.
The bladder and urethra was exposed via a mid-line incision of the lower abdom. A 19 gauge needle (0.9 mm OD) was placed on the surface of the urethra, and a 3-0 black mono nylon suture was firmly tied over the urethra and the ligation was left in place for the duration of the study. The needle was then removed and the diameter and position of the ligature was then inspected to ensure that a partial urethral obstruction was obtained. The abdominal cavity was then closed in layers with single cross-sutures (5-0 black polyfilament nylon suture). Animals were then housed in individual cages for two weeks before cystometry were performed.
The appropriate solution of the compound of Formula I was prepared on the day of the experiment using PBS as the vehicle. A stock solution of 10 mg/ml in PBS was used and the animals were administered daily, weight-controlled doses of 3 mg/kg compound of Formula I or vehicle by intraperitoneal (“IP”) injection over the 2 week treatment period, starting on the day of PUO surgery.
Cystometry was performed without anesthesia three days after the implantation of bladder catheters in rats with PUO, and after two weeks of daily treatment with the compound of Formula I. The conscious rats were placed in metabolic cages without restraint and the bladder catheters were connected via a T-tube to a pressure transducer (P23 DC; Statham Instruments Inc., Oxnard, Calif.) and a microinjection pump (CMA 100; Carnegie Medicine AB, Solna, Sweden). Micturition volumes were recorded with a fluid collector connected to a force displacement transducer (FT 03 D, Grass Instrument Co., Quincy, Mass.). Room-temperature saline was infused into the bladder continuously at a rate of 10 ml/h. Bladder size increases several-fold in rats subjected to PUO. Therefore, an infusion rate of 20 ml/h was used during cystometry in these animals. Pressures and micturition volumes were recorded continuously with Acq Knowledge 3.8.1 software and a MP100 data acquisition system (Biopac Syst. Inc. Santa Barbara, Calif.) connected to a Grass polygraph (Model 7E, Grass Instrument Co). At the beginning of cystometry, the bladder was emptied via the bladder catheter.
The following urodynamic parameters were investigated: micturition pressure (“MP;” maximum bladder pressure during micturition), threshold pressure (“ThP”; bladder pressure at start of detrusor contraction), flow pressure (“FP”; bladder pressure when urethra opens), MI (time between two micturitions), micturition volume (“MV”; volume of the expelled urine), and RV (volume left in bladder after a micturition). At least a 30-minute period with stable and reproducible micturitions was recorded before drug administration and used as baseline value, to be compared with a corresponding stable 30-minute period after drug administration. For multiple comparisons, a one-way analysis of variance for repeated measures (Holm-Sidak) was used. Pairwise and non-pairwise comparisons were made by Student's t-test. All statistical calculations are based on the number of individual animals, and significant differences are accepted when p<0.05.
As used herein, the term “chronic” means that the animals were dosed once/day for 14 days, prior to taking the cystometry measurements. For specific investigation and analysis of NVCs, the PUO should beneficially be removed approximately 2-3 days prior to the urodynamic investigation. […]

[3] = tested on: isolated detrusor from rats with partial urethral obstruction; assay: Nerve-induced contractions (electrical field stimulation) in bladder strips from PUO rats; format: ex vivo, rat; conditions: for Nerve-induced contractions: % of 60 mM K+ responses, preparations from treated PUO rats
Description: as §1, §2
Transmural activation of nerves was performed with two platinum electrodes, placed in parallel to the sides of the strips in the organ baths. The nerves of the preparations were stimulated by means of a Grass S 48 stimulator, delivering single square-wave pulses at supramaximum voltage with duration of 0.5 ms. The polarity was changed after each pulse by means of a polarity-changing unit. The train duration was 5 seconds and the train interval 120 seconds. Frequency-response relationships were investigated at supramaximum voltage in all preparations stimulated electrically. […] All contractile responses were expressed as a percentage of the contraction elicited by 60 mM K^+ Krebs solution. Simultaneous curve fit analysis was performed using GraphPad Prism v4.0 to determine statistical significance for increased efficacy of the compound of Formula I treatment upon muscle strips. Briefly, dose-response curves were tested comparing a variable slope model vs. a fixed slope (m=1) model.

[4] = Actual solubility in aqueous buffers; format: physicochemical; conditions: aqueous buffer
Description: The actual solubility of certain compounds of the invention was assessed in aqueous buffers and final concentration of compounds was determined using HPLC and spectrophotometer methodologies.

Chain of CB1 receptor (P21554 whole entry): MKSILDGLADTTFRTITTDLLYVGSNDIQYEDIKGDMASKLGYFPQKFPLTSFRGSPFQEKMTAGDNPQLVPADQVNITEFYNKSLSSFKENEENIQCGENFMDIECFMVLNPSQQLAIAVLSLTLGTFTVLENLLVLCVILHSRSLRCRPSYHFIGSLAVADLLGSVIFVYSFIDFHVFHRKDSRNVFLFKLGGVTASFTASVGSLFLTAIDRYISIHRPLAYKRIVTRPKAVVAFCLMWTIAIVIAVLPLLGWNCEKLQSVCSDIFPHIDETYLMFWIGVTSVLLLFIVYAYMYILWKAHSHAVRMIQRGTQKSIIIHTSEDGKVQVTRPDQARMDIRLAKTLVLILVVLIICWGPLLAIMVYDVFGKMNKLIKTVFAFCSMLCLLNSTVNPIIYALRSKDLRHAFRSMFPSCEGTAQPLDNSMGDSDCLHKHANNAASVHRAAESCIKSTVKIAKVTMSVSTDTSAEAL

## CCCCCCC(C)(C)c1cc(O)c([C@H]2CC(=O)[C@H]3C[C@@H]2C3(C)C)c(OC(=O)/C=C/C(=O)O)c1 [Formula I]
CB1 receptor
  IC50: 660 nM
[1]; carbachol 1 nM to 1 μM
  Carbachol-induced detrusor contractions vs vehicle-treated PUO rats: no differences
[1]; simultaneous curve fitting, p<0.0008
  Maximal response to carbachol vs vehicle-treated PUO rats: significant increase
[2]; PUO rats
  Incidence of NVC: 20%
[2]; PUO rats, n=10, not significant
  Mean bladder weight: 0.88 ± 0.13 g
[2]; PUO rats, ns
  Micturition pressure (MP): 116.0±17.4 cmH2O
[2]; PUO rats, p<0.002
  Mean flow pressure (FP): 87.4±8.7 cmH2O
  Mean threshold pressure (ThP): 39.4±4.9 cmH2O
[2]; PUO rats, p<0.01
  Micturition interval (MI): 84 ± 10 s
[2]; PUO rats, p<0.02
  Micturition volume (MV): 0.43 ± 0.07 mL
  Residual volume (RV): 0.09 ± 0.05 mL
[2]; PUO rats, p<0.03
  Micturition frequency: 53±11 micturitions per hour
[2]; p<0.04
  PUO rats exhibiting non-voiding contractions (NVCs): 2 out of 10
[3]; 1 Hz, bladders from PUO rats treated for 2 weeks
  Nerve-induced contractions vs untreated PUO rats: significantly larger contractions
[3]; 8 Hz, p<0.01
  Nerve-induced contractions: 83±14%
[3]; 16 Hz, p<0.005
  Nerve-induced contractions: 120±16%
[3]; 32 Hz, p<0.006
  Nerve-induced contractions: 146±16%
[4]
  solubility: > 10000 µg/mL

Reference: patent publication US20090312414A1, “Treatment Of Lower Urinary Tract Dysfunction With CB2-Receptor-Selective Agonists” (priority 2008, published 2009)
